Measurements published in US20130065314A1, “ALGAL TRANSFORMATION SYSTEMS, COMPOSITIONS AND METHODS” (PHYTOCENTRIC BIOTECH INC., priority 2011, published 2013).
Read-outs that look alike come from different tables or passages of the source.

Key:
[1] = system: C. reinhardtii (Nit1-305,cw-15); test: Transformation of algal cells with plasmid DNA and CPP, selection on Zeocin plates; type: cell-based, Chlamydomonas reinhardtii
Procedure: Transformation experiments were conducted. […] Cell culture was grown in 900 ml of SGII+NH4NO3 medium, divided in 3 aliquots into 500 ml Erlenmeyer flasks each containing 300 ml of the culture. The culture was grown for two days until the cell growth reached mid-log phase and cell density reached to 1×10^6 cells ml^−1 (OD at 680 nm=0.6-0.8). Cells were collected at 3000 rpm for 10 minutes to obtain 9×10^8 cells in total. In all transformation experiments for Chlamydomonas reinhardtii, SGII+NH4NO3 medium was used in downstream experimental steps. […] Cells were washed after grown in SGII-NH4NO3 medium to remove NH4 traces. Cells were divided into 3 aliquots each of 3×10^8 cells. Two aliquots of the harvested cells were treated with cell wall degrading enzymes one with cellulase from Aspergillus niger (Sigma, Canada) and the other with lysozyme from chicken egg white (Sigma, Canada).
Lysozyme treatment: Lysozyme from chicken white egg was purchased (Sigma-Aldrich, Canada). Enzymatic assay protocol was modified from Sigma-Aldrich product information publication. For cell lysis/cell wall disruption, use a freshly prepared lysozyme solution (10 mg/ml) in sterilized 10 mM Tris-HCL, pH 8.0. Add 25 μl of a freshly prepared lysozyme to the required number (−5.0×10^7) of cells/transformation reaction, mix by vortexing for 3 seconds. Incubate the lysis mixture for 15 minutes at 37° C. […] Centrifuge the cells and discard the supernatant containing lysozyme. To stop the reaction, wash the cells twice with media and collect the cells at 3000 rpm for 10 minutes. Proceed to downstream applications and/or transformation experiment.
Cellulase treatment: Cellulase (EC 3.2.1.4) was purchased from Sigma-Aldrich, Canada. Enzymatic assay protocol was modified from Sigma-Aldrich product information publication. Just before use, prepare solution containing 8 units/ml (26.7 mg/ml) of cellulase in sterilized cold distilled water. Add 500 μl of a freshly prepared cellulase solution to the required number (−5.0×10^7) of cells, immediately mix by swirling. Incubate the lysis mixture for 15 minutes at 37° C. […] Centrifuge the cells and discard the supernatant containing lysozyme. To stop the reaction, wash the cells twice and collect the cells at 3000 rpm for 10 minutes. Proceed to downstream applications and/or transformation experiment.
The third aliquot was not treated with any enzyme.
After enzymatic treatments, the cells were washed twice with the medium to stop the reaction. Cells of each aliquot were re-suspended in fresh medium (cell concentration=3×10^8ml^−1) and used 300 μl of cell suspension (−5×10^7 number of cell) in each transformation reaction. Cells were transferred to 15 ml Falcon tube containing sterilized 300 mg glass beads of 0.5 mm size. Just prior to starting the next step, 1 μg plasmid DNA and one of the four ATT(s) tested were mixed. One of the four ATT-plasmid mixtures were added to the algal cells and beads suspended in media. The cells, ATT and DNA mixture and the beads were vortexed for 15 seconds. 10 ml of medium was added to the transformation reaction, and the tubes were incubated overnight with shaking at 100 rpm in incubator to allow cell recovery and expression of the gene. The cell suspensions were transferred to fresh tubes to remove beads and cells were spun by centrifugation for 5 minutes at 3000 rpm. The cells were re-suspended in 2 ml of 0.5% agar medium by gentle pipetting and were plated on 2% agar medium supplemented with 10 μg ml^−1 Zeocin.

linearized plasmid DNA = test: Gel mobility shift assay of peptide plasmid DNA complex formation; conditions: 200 ng linearized plasmid DNA, 1% agarose gel
Procedure: Non-covalent attachment was tested using a gel mobility shift assay. The gel mobility shift assay was used to determine the minimum peptide concentration needed bind to plasmid DNA and cause it to shift during electrophoresis. Based on a peptide-DNA charge ratio calculation increasing concentrations of peptide were added to 200 ng of linearized plasmid DNA until the charge of the DNA was neutralized by the peptide causing a mobility shift in the DNA during electrophoresis in a 1% agarose gel.

[2] = system: C. reinhardtii (Nit1-305,cw-15); test: PCR screening of transformant colonies (Zeocin specific primers); type: cell-based, Chlamydomonas reinhardtii; conditions: pSP124S linearized with KpnI, no pretreatment; 155 bp expected product (FIG. 11 panel A)
Procedure: Transformed colonies were picked from the selection plates and inoculated into liquid selection media to multiply cells to be used for genomic DNA isolation. Genomic DNA from 1×10^5 cells of untransformed algae and the transformants were isolated using DNeasy™ Blood & Tissue Kit (QIAGEN®). ReadyMix™ Taq PCR Reaction Mix with MgCl2 (Sigma, Canada) was used to prepare 20 μl PCR reactions. Thermal cycling conditions were initial denaturation at 95° C. for 5 minutes and 40 cycles of 95° C. for 30 s, 65° C. for 30 s and 72° C. for 1.5 min. A final primer extension cycle was performed at 72° C. for 10 min.

[3] = pSP124S linearized with EcoRI, 0.5 mm bead disruption, Zeocin 10 μg/ml (FIG. 9)
[4] = pSP124S linearized with KpnI, 0.5 mm bead disruption, Zeocin 10 μg/ml (FIG. 8)

| Substance | transformation rate compared with the other three peptides [1] | transformed colonies on selection plate [1] | amount of peptide at which the shift occurred (linearized plasmid DNA) | PCR product with Zeocin specific primers in transformant colonies [2] | transformed colonies on selection plate [1, 3] | transformed colonies on selection plate [1, 4] |
| --- | --- | --- | --- | --- | --- | --- |
| Transportan [ATT1] | higher | transformed | 339 ng | Lane 1 is positive |  |  |
| (Arg)9 (RRRRRRRRR) [ATT4] |  |  | 120 ng |  | transformed | transformed |
| Tat (48-57) (GRKKRRQRRR) [ATT2] |  |  | 80 ng | Lane 7 and 8 are positive | transformed | transformed |
